Measured values: PubChem BioAssay AID338 (DTP/NCI, 2004)
Values joined by “and” are separate entries in the source; they are usually repeats but may differ in a detail not shown here. Identical values can stand only once. Toxic doses and inconclusive results are not listed.

System: BDF1 mice, P388 leukemia (terephthalanilide-resistant), survival T/C
Assay: NCI In Vivo Anticancer Drug Screen. Data for tumor model P388 Leukemia resistant to A Terephthalanilide; NSC 38280 (intraperitoneal) in B6D2F1 (BDF1) mice
Details: endpoint: median survival time, higher = longer survival
Method: The antitumor activity of compounds was measured in mice bearing transplantable tumors. Survival or tumor size were measured and the results are expressed as the measurement made in the treated group (T) divided by the measurement made in the vehicle treated control group (C). The tumor model used in this assay is P388 Leukemia resistant to A Terephthalanilide; NSC 38280 (intraperitoneal) in B6D2F1 (BDF1) mice

[1] = dose: 15.0 mg/kg/injection, schedule: Q01DX010 (ip), vehicle: saline
[2] = dose: 25.0 mg/kg/injection, schedule: Q01DX010 (ip), vehicle: saline
[3] = dose: 40.0 mg/kg/injection, schedule: Q01DX010 (ip), vehicle: saline
[4] = dose: 10.0 mg/kg/injection, schedule: Q01DX010 (ip), vehicle: saline

C[C@]12C=CC(=O)C=C1CC[C@@H]1[C@@H]2[C@@H](O)C[C@@]2(C)[C@H]1CC[C@]2(O)C(=O)CO
T/C (dose: 12.5 mg/kg/injection, schedule: Q01DX010 (sc), vehicle: steriod suspending solution): 112 % of control | T/C (dose: 25.0 mg/kg/injection, schedule: Q01DX010 (sc), vehicle: steriod suspending solution): 118 % of control | T/C (dose: 50.0 mg/kg/injection, schedule: Q01DX010 (sc), vehicle: steriod suspending solution): 106 % of control | T/C (dose: 100.0 mg/kg/injection, schedule: Q01DX010 (sc), vehicle: steriod suspending solution): 112 % of control

N#CCSc1ncnc2nc[nH]c12
T/C [1]: 100 % of control | T/C (dose: 30.0 mg/kg/injection, schedule: Q01DX010 (ip), vehicle: saline): 100 % of control | T/C (dose: 60.0 mg/kg/injection, schedule: Q01DX010 (ip), vehicle: saline): 105 % of control and 109 % of control | T/C (dose: 120.0 mg/kg/injection, schedule: Q01DX010 (ip), vehicle: saline): 100 % of control

CCN(CC)CCNc1ccc(C)c2sc3ccccc3c(=O)c12
T/C [2]: 105 % of control and 122 % of control | T/C (dose: 100.0 mg/kg/injection, schedule: Q01DX010 (ip), vehicle: saline): 100 % of control

O=CCC(O)C(O)C(O)CO (stereo not given)
T/C (dose: 62.5 mg/kg/injection, schedule: Q01DX010 (ip), vehicle: saline): 110 % of control and 111 % of control | T/C (dose: 125.0 mg/kg/injection, schedule: Q01DX010 (ip), vehicle: saline): 100 % of control and 110 % of control | T/C (dose: 250.0 mg/kg/injection, schedule: Q01DX010 (ip), vehicle: saline): 110 % of control and 111 % of control | T/C (dose: 500.0 mg/kg/injection, schedule: Q01DX010 (ip), vehicle: saline): 115 % of control and 122 % of control

NC(Cc1ccc(N(CCCl)CCCl)cc1)C(=O)O (stereo not given)
T/C (dose: 2.0 mg/kg/injection, schedule: Q01DX010 (ip), vehicle: other): 163 % of control | T/C (dose: 4.0 mg/kg/injection, schedule: Q01DX010 (ip), vehicle: other): 100 % of control

O=C(Nc1cccc(NC(=O)Nc2cccc(C3=NCCN3)c2)c1)Nc1cccc(C2=NCCN2)c1
T/C (dose: 27.0 mg/kg/injection, schedule: Q01DX010 (ip), vehicle: saline): 111 % of control | T/C [3]: 111 % of control | T/C (dose: 66.0 mg/kg/injection, schedule: Q01DX010 (ip), vehicle: saline): 111 % of control | T/C (dose: 90.0 mg/kg/injection, schedule: Q01DX010 (ip), vehicle: saline): 111 % of control

Nc1nc(=S)c2[nH]cnc2[nH]1
T/C (dose: 1.25 mg/kg/injection, schedule: Q01DX010 (ip), vehicle: saline): 162 % of control | T/C (dose: 2.5 mg/kg/injection, schedule: Q01DX010 (ip), vehicle: saline): 150 % of control and 175 % of control | T/C [4]: 112 % of control

O=c1[nH]c(=O)n(C2CC(O)C(CO)O2)cc1F (stereo not given)
T/C (dose: 5.0 mg/kg/injection, schedule: Q01DX010 (ip), vehicle: saline): 100 % of control | T/C [4]: 90 % of control and 104 % of control | T/C (dose: 20.0 mg/kg/injection, schedule: Q01DX010 (ip), vehicle: saline): 90 % of control and 113 % of control | T/C [3]: 104 % of control and 118 % of control | T/C (dose: 80.0 mg/kg/injection, schedule: Q01DX010 (ip), vehicle: saline): 159 % of control

CC1CN=C(c2ccc(NC(=O)c3ccc(C(=O)Nc4ccc(C5=NCC(C)N5)cc4)cc3)cc2)N1 (stereo not given)
T/C [4]: 111 % of control | T/C [1]: 111 % of control | T/C (dose: 22.0 mg/kg/injection, schedule: Q01DX010 (ip), vehicle: saline): 111 % of control | T/C (dose: 33.0 mg/kg/injection, schedule: Q01DX010 (ip), vehicle: saline): 111 % of control

CS(=O)(=O)OCCCCOS(C)(=O)=O
T/C (dose: 6.25 mg/kg/injection, schedule: Q01DX010 (ip), vehicle: saline): 87 % of control and 100 % of control | T/C (dose: 12.5 mg/kg/injection, schedule: Q01DX010 (ip), vehicle: saline): 100 % of control and 106 % of control | T/C [2]: 87 % of control and 100 % of control | T/C (dose: 50.0 mg/kg/injection, schedule: Q01DX010 (ip), vehicle: saline): 106 % of control

CC(CCC(C)OS(C)(=O)=O)OS(C)(=O)=O (stereo not given)
T/C (dose: 2.0 mg/kg/injection, schedule: Q01DX010 (ip), vehicle: saline): 90 % of control and 95 % of control | T/C (dose: 4.0 mg/kg/injection, schedule: Q01DX010 (ip), vehicle: saline): 95 % of control and 100 % of control | T/C (dose: 8.0 mg/kg/injection, schedule: Q01DX010 (ip), vehicle: saline): 100 % of control | T/C (dose: 16.0 mg/kg/injection, schedule: Q01DX010 (ip), vehicle: saline): 86 % of control and 100 % of control
